In data set [1] the test system is human prostate tissues. Kind of data set: organ bath, noradrenaline-induced contractions of human prostate strips. Here is the method:
Human prostate tissues were obtained from patients undergoing radical prostatectomy for prostate cancer (n=107). Patients who underwent previous transurethral resection of the prostate (TURP) were excluded. This study was carried out in accordance with the Declaration of Helsinki of the World Medical Association, and has been approved by the ethics committee of the Ludwig-Maximilians University, Munich, Germany (Ethikkommission bei der LMU Munchen, approval number 19-737). Informed consent was obtained from all patients. According to the ethical approval, samples and data were collected and analyzed anonymously, so that no data on patients' characteristics were stored. Samples were taken immediately after prostatectomy, following macroscopical examination by an uro-pathologist. All tissues were taken from the periurethral zone, considering that most prostate cancers arise in the peripheral zone (Pradidarcheep et al., 2011; Shaikhibrahim et al., 2012). […] BPH is present in 80-83% of patients with prostate cancer (Alcaraz et al., 2009; Orsted and Bojesen, 2013). Typically, such tissues show varying content of prostate-specific antigen (PSA), and different contents of smooth muscle and glandular epithelia, reflecting that BPH is present to different degree (Wang et al., 2016a, 2016c). For macroscopic examination and sampling, the prostate was opened by a single longitudinal cut from the capsule to the urethra. Subsequently, both intersections were checked macroscopically for any obvious tumor infiltration. Because tumors are usually located to the peripheral zone, tumor infiltration in the periurethral zone (where sampling was performed) was very rare (found in less than 1% of prostates). Prostates showing tumors in the periurethral zone in macroscopic inspection were not subjected to sampling and were not included in this study. Organ bath studies were performed immediately after sampling, while samples for molecular analyses were shock frozen in liquid nitrogen and stored at −80° C.
Prostate strips (6×3×3 mm) were mounted in 10 ml aerated (95% 02 and 5% CO2) tissue baths (Danish Myotechnology, Aarhus, Denmark), containing Krebs-Henseleit solution (37° C., pH 7.4) with following composition: 118 mM NaCl, 4.7 mM KCl, 2.55 mM CaCl2), 1.2 mM KH2PO4, 1.2 mM MgSO4, 25 mM NaHCO3, 7.5 mM glucose. In each single experiment, two from four strips obtained from the same prostate were allocated to the control group (without inhibitor or antagonist), and two others to the inhibitor/antagonist group (resulting in duplicate determination for each group in each single experiment). All four samples of one experiment were examined in four chambers of the same organ bath. Consequently, control and inhibitor curves in each series/diagram were obtained from the same prostates, but different prostates were examined for different series/diagrams. […] Only one curve was recorded with each sample, i. e. for one agonist, or for electric field stimulation (EFS).
(§1) After mounting in organ bath chambers, preparations were stretched to 4.9 mN and left to equilibrate for 45 min. […] After the equilibration period, maximum contraction induced by 80 mM KCl was assessed. […]

The test system of data set [2] is human prostate tissues. Kind of data set: organ bath, endothelin-1-induced contractions of human prostate strips. Particulars: read-out: inhibition of endothelin-1-induced contraction. The protocol:
Human prostate tissues were obtained from patients undergoing radical prostatectomy for prostate cancer (n=107). Patients who underwent previous transurethral resection of the prostate (TURP) were excluded. This study was carried out in accordance with the Declaration of Helsinki of the World Medical Association, and has been approved by the ethics committee of the Ludwig-Maximilians University, Munich, Germany (Ethikkommission bei der LMU Munchen, approval number 19-737). Informed consent was obtained from all patients. According to the ethical approval, samples and data were collected and analyzed anonymously, so that no data on patients' characteristics were stored. […]
Prostate strips (6×3×3 mm) were mounted in 10 ml aerated (95% 02 and 5% CO2) tissue baths (Danish Myotechnology, Aarhus, Denmark), containing Krebs-Henseleit solution (37° C., pH 7.4) with following composition: 118 mM NaCl, 4.7 mM KCl, 2.55 mM CaCl2), 1.2 mM KH2PO4, 1.2 mM MgSO4, 25 mM NaHCO3, 7.5 mM glucose. […] Only one curve was recorded with each sample, i. e. for one agonist, or for electric field stimulation (EFS).
as §1

Data set [3] can be described thus: CCK-8 viability (cytotoxicity) assay. Format: cell-based. To be noted: human, WPMY-1 cells (immortalized prostate stromal cells), read-out: decrease of viability. The protocol:
(§2) WPMY-1 cells are an immortalized cell line obtained from human prostate stroma without prostate cancer (Webber et al., 1999). Cells were obtained from American Type Culture Collection (ATCC; Manassas, Va., USA), and kept in RPMI 1640 (Gibco, Carlsbad, Calif., USA) supplemented with 10% fetal calf serum (FCS) and 1% penicillin/streptomycin at 37° C. with 5% CO2. Before addition of onvansertib or DMSO, the medium was changed to a FCS-free medium. For Western blot analysis, cells were lyzed using radioimmunoprecipitation assay (RIPA) buffer (Sigma-Aldrich, St. Louis, Mo., USA), and removed from flasks after 15 min of incubation on ice. Cell debris was removed by centrifugation (10,000 g, 10 min, 4° C.), and different aliquots of supernatants were either subjected to protein determination, or boiled with SDS sample buffer.
Viability of cells was assessed using the Cell Counting Kit-8 (CCK-8) (Sigma-Aldrich, St. Louis, Mo., USA). […] Subsequently, cells were grown for different periods (24, 48, 72 h). Separate controls were performed for each period. At the end of this period, 10 μl of [2-(2-methoxy-4-nitrophenyl)-3-(4-nitrophenyl)-5-(2,4-disulfophenyl)-2H-tetrazolium monosodium salt (WST-8) from CCK-8 was added, and absorbance in each well was measured at 450 nm after incubation for 2 h at 37° C.

For data set [4], the system named is WPMY-1 cells. Kind of data set: EdU proliferation assay. Format: cell-based, human. Particulars: 24 h. The protocol:
as §2
WPMY-1 cells were plated with cell line-specific densities (50,000/well) on 16-well chambered coverslips (Thermo Scientific, Waltham, Mass., USA). […] 20 h later, cells were fixed with 3.7% formaldehyde. EdU incorporation was determined using the “EdU-Click 555” cell proliferation assay (Baseclick, Tutzing, Germany) according to the manufacturer's instructions. In this assay, incorporation of EdU into DNA is assessed by detection with fluorescing 5-carboxytetramethylrhodamine (5-TAMRA). Counterstaining of all nuclei was performed with DAPI. Cells were analyzed by fluorescence microscopy (excitation: 546 nm; emission: […]).

Data set [5] relates to 296 kinases. Particulars: cited from earlier work.

What is called inhibition is how much of the control response was suppressed.

Take `CN1CCN(c2ccc(OC(F)(F)F)c(Nc3ncc4c(n3)-c3c(c(C(N)=O)nn3CCO)CC4)c2)CC1` [onvansertib, 1-(2-hydroxyethyl)-8-{[5-(4-methylpiperazin-1-yl)-2-(trifluoromethoxy)phenyl]amino}-4,5-dihydro-1H-pyrazolo[4,3-h] quinazoline-3-carboxamide]: the inhibition at 0.1 µM in data set [1] (Homo sapiens) is 45 ± 9.7%; in data set [2], 45 ± 6.6%. The molecule further yielded an inhibition at 1 µM in data set [1] (Homo sapiens) of 41 ± 6.2%. In data set [1] (washout of onvansertib (100 nM) for 30 min), the “noradrenaline-induced contractions after washout versus DMSO” value was “did not differ”. Moreover, in data set [3] (10 nM, 24 h), the cytotoxicity at 24 h, 10 nM was determined as 15 ± 8.8%. Moreover, in data set [3] (10 nM, 48 h), the cytotoxicity at 48 h, 10 nM worked out at 28 ± 8.3%. Besides, the cytotoxicity at 72 h, 10 nM in data set [3] (10 nM, 72 h) came to 40 ± 4.4%. Further, the cytotoxicity at 24 h, 100 nM in data set [3] (100 nM, 24 h) amounted to 63 ± 2.2%. The cytotoxicity at 48 h, 100 nM in data set [3] (100 nM, 48 h) is 86 ± 1.9%. Also, the cytotoxicity at 72 h, 100 nM in data set [3] (100 nM, 72 h) was found to be 89 ± 1.4%. Also, the “decrease of percentage of proliferating cells” value in data set [4] (10 nM) is given as 18±0.1%; in data set [4] (50 nM) it was 24±2.1%; in data set [4] (100 nM) it was 35±2.0%. Further, in data set [5] (tested at 100 nM against 296 kinases), the kinases inhibited entry is “inhibition only of PLK1”. Further, in data set [5] (tested at 1 μM against 296 kinases, including PLK1), the “number of kinases with decreases in activities (<50%)” value is on record as 11.

The values are drawn from patent publication US20220143021A1 (Cardiff Oncology, Inc., priority 2019, published 2022).
